Experimental data taken from patent publication US20030166583A1, “Dermal cytochrome P450 1A inhibitors and enhancers” (priority 2002, published 2003).
Read-outs that look alike come from different tables or passages of the source.

What was measured:
CYP1A [1] = experiment: in vitro; conditions: nude, mouse; for activity at 10 min, 1 µM / activity at 10 min, 10 µM / activity at 10 min, 100 µM: pH 7.8, dermal CYP1A activity (% of control group); for inhibition at 10 min, 100 µM: pH 7.8, inhibition of dermal CYP1A activity
From the text: (§1) Nude mice were sacrificed by decapitation.
(§2) The precipitate containing the microsomes was obtained.

CYP1A [2] = experiment: in vitro; conditions: nude, mouse, pH 7.8
Procedure: (§3) Nude mice were sacrificed by decapitation. The skin and liver were immediately removed and kept in ice bath or 4° C. […] Connective tissue, blood, and fat were carefully removed from the tissue. Excess water content was removed from the homogenized tissue by tissue papers before the tissue was weighed.
(§4) The suspension of homogenized tissue in potassium chloride solution was transferred into a Teflon pestle-glass homogenizer for homogenization for six (6) times. Then, potassium chloride solution was added into the homogenized suspension to bring the volume to about four (4) times of the homogenized suspension. The diluted suspension was 5 transferred into a centrifuge tube and centrifuged at 4° C., 9000 xg, for twenty (20) minutes. The supernatant containing microsomes from skin or liver tissue and other soluble substance were removed and the volume of the supernatant was brought up to four (4) times of the weight of the tissue by adding potassium chloride solution. The diluted supernatant was transferred into a centrifuge tube and centrifuged at 4° C., 100,000 xg, for one (1) hour (Beckman L8-80M). The precipitate containing the microsomes was obtained. Potassium chloride solution was added into the precipitate to bring the volume up to four (4) times of the weight of the tissue, and the suspension was centrifuged at 4° C., 100,000 xg for one (1) hour, to obtain the washed microsomes, which were stored at −78° C. in 0.1M KH2PO4-K2HPO4 buffer (pH=7.4).
(§5) The enzymatic activity of CYP1A was determined based on the activity of 7-ethoxyresorufin-O-deethylase (i.e., for CYP1A) and 7-methoxyresorufin-O-demethylase (i.e., CYP1A2). […] Except for the blank group, the reaction was triggered by adding 0.54 μM NADPH. In the test tube (16×100 mm), the reaction was carried out for ten (10) minutes at constant temperature (37° C.) with vibration and without light Methanol 2.5 ml was added into the reaction mixture to stop the reaction. Protein precipitate was removed from the reaction mixture by centrifuging the reaction mixture at 180 xg for ten (10) minutes. The supernatant was tested for florescent intensity with 550 nm as the excitation wavelength and 585 nm the emission wavelength. The florescent intensity was compared with 0.01 μM-0.1 μM standard Rhodamine B solution to obtain the reading of the CYP1A enzyme activity.

dermal CYP1A = experiment: in vitro
From the text: as §1, §2

Procedure for liver CYP1A: as §3, §4, §5

Compound: O=c1cc(-c2ccc(O)cc2)oc2cc(O)cc(O)c12 [Apigenin]
- activity at 10 min, 1 µM (CYP1A [1]): 103%
- activity at 10 min, 10 µM (CYP1A [1]): 97.2%
- activity at 10 min, 100 µM (CYP1A [1]): 76.4%
- inhibition at 10 min, 100 µM (CYP1A [1]): ~24%
- activity at 10 min, 1 µM (CYP1A [2]): 118%
- activity at 10 min, 100 µM (CYP1A [2]): 53.5%

Compound: O=c1cc(-c2ccccc2)oc2ccc3ccccc3c12 [Beta-NF, β-naphthoflavone]
- dermal CYP1A activity (% of control group) (dermal CYP1A; 1 µM): 27.41%
- dermal CYP1A activity (% of control group) (dermal CYP1A; 10 µM): 24.00%
- dermal CYP1A activity (% of control group) (dermal CYP1A; 100 µM): 3.76%
- liver CYP1A activity (% of control group) (liver CYP1A; 1 µM): 75.00%
- liver CYP1A activity (% of control group) (liver CYP1A; 10 µM): 22.78%
- liver CYP1A activity (% of control group) (liver CYP1A; 100 µM): 13.79%

Compound: O=C(O)/C=C/c1ccccc1 [Trans-cinnamic acid]
- activity at 10 min, 1 µM (CYP1A [1]): 117%
- activity at 10 min, 10 µM (CYP1A [1]): 110%
- activity at 10 min, 100 µM (CYP1A [1]): 86.6%
- inhibition at 10 min, 100 µM (CYP1A [1]): ~13%
- activity at 10 min, 1 µM (CYP1A [2]): 109%
- activity at 10 min, 10 µM (CYP1A [2]): 103%
- activity at 10 min, 100 µM (CYP1A [2]): 101%
